# Assays:
# Assay in all cases: relative viability (nuclei count vs DMSO), 5 days (fraction); higher = more cells survive
# [1] = test system: COR-L23
# In short: (§1)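 Lung cancer cell lines in 1536-well plates were dosed by pin tool the day after seeding, either with one drug alone or with a fixed anchor-drug dose plus five library-drug doses (not always all listed) in √10 steps. After 5 days, cells were fixed and their nuclei stained in one step (final 0.05% Triton X-100, 1% formaldehyde, 1 ug/ml Hoechst), then counted on 4× images. Relative viability is the nuclei count in treated wells divided by that in vehicle wells. Values are medians of duplicate plates.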
# [2] = test system: ChaGo-K-1
# In short: as §1
# [3] = test system: EMC-BAC-2
# In short: as §1
# [4] = test system: EPLC-272H
# In short: as §1
# [5] = test system: HCC-44
# In short: as §1
# [6] = test system: HOP-62
# In short: as §1
# [7] = test system: LCLC-103H
# In short: as §1
# [8] = test system: LK-2
# In short: as §1
# [9] = test system: NCI-H1355
# In short: as §1
# [10] = test system: NCI-H1666
# In short: as §1
# [11] = test system: NCI-H1944
# In short: as §1
# [12] = test system: NCI-H1975
# In short: as §1
# [13] = test system: NCI-H2023
# In short: as §1
# [14] = test system: NCI-H2087
# In short: as §1
# [15] = test system: NCI-H2126
# In short: as §1
# [16] = test system: NCI-H2228
# In short: as §1
# [17] = test system: NCI-H2405
# In short: as §1
# [18] = test system: NCI-H3122
# In short: as §1
# [19] = test system: NCI-H322M
# In short: as §1
# [20] = test system: NCI-H441
# In short: as §1
# [21] = test system: NCI-H460
# In short: as §1
# [22] = test system: NCI-H596
# In short: as §1
# [23] = test system: PC-14
# In short: as §1
# [24] = test system: SW 1573
# In short: as §1
compound,measurement,setting,value
Nc1cccc2c1CN(C1CCC(=O)NC1=O)C2=O (stereo unspecified) [Lenalidomide] + CS(=O)(=O)N1CCN(Cc2cc3nc(-c4cccc5[nH]ncc45)nc(N4CCOCC4)c3s2)CC1 [Pictilisib] (partner 1 µM),relative viability,[1]; first compound 0.253 µM,0.778
same,relative viability,[1]; first compound 0.8 µM,0.7
same,relative viability,[1]; first compound 2.53 µM,0.924
same,relative viability,[1]; first compound 8 µM,0.64
same,relative viability,[2]; first compound 0.253 µM,0.791
same,relative viability,[2]; first compound 2.53 µM,0.739
same,relative viability,[2]; first compound 8 µM,0.625
same,relative viability,[3]; first compound 0.253 µM,0.532
same,relative viability,[3]; first compound 0.8 µM,0.474
same,relative viability,[3]; first compound 2.53 µM,0.535
same,relative viability,[3]; first compound 8 µM,0.411
same,relative viability,[4]; first compound 0.253 µM,0.325
same,relative viability,[4]; first compound 2.53 µM,0.361
same,relative viability,[4]; first compound 8 µM,0.274
same,relative viability,[5]; first compound 0.253 µM,0.525
same,relative viability,[5]; first compound 0.8 µM,0.409
same,relative viability,[5]; first compound 2.53 µM,0.58
same,relative viability,[5]; first compound 8 µM,0.433
same,relative viability,[6]; first compound 0.253 µM,0.627
same,relative viability,[6]; first compound 0.8 µM,0.834
same,relative viability,[6]; first compound 2.53 µM,0.922
same,relative viability,[6]; first compound 8 µM,0.535
same,relative viability,[7]; first compound 0.253 µM,0.603
same,relative viability,[7]; first compound 0.8 µM,0.547
same,relative viability,[7]; first compound 2.53 µM,0.621
same,relative viability,[7]; first compound 8 µM,0.556
same,relative viability,[8]; first compound 0.253 µM,0.602
same,relative viability,[8]; first compound 2.53 µM,0.599
same,relative viability,[8]; first compound 8 µM,0.538
same,relative viability,[9]; first compound 0.253 µM,0.419
same,relative viability,[9]; first compound 0.8 µM,0.258
same,relative viability,[9]; first compound 2.53 µM,0.429
same,relative viability,[9]; first compound 8 µM,0.259
same,relative viability,[10]; first compound 0.253 µM,0.471
same,relative viability,[10]; first compound 0.8 µM,0.372
same,relative viability,[10]; first compound 2.53 µM,0.495
same,relative viability,[10]; first compound 8 µM,0.488
same,relative viability,[11]; first compound 0.253 µM,0.382
same,relative viability,[11]; first compound 0.8 µM,0.309
same,relative viability,[11]; first compound 2.53 µM,0.319
same,relative viability,[11]; first compound 8 µM,0.287
same,relative viability,[12]; first compound 0.253 µM,0.316
same,relative viability,[12]; first compound 0.8 µM,0.228
same,relative viability,[12]; first compound 2.53 µM,0.278
same,relative viability,[12]; first compound 8 µM,0.223
same,relative viability,[13]; first compound 0.253 µM,0.254
same,relative viability,[13]; first compound 0.8 µM,0.176
same,relative viability,[13]; first compound 2.53 µM,0.268
same,relative viability,[13]; first compound 8 µM,0.187
same,relative viability,[14]; first compound 0.253 µM,0.982
same,relative viability,[14]; first compound 0.8 µM,0.436
same,relative viability,[14]; first compound 2.53 µM,0.972
same,relative viability,[14]; first compound 8 µM,0.732
same,relative viability,[15]; first compound 0.253 µM,0.501
same,relative viability,[15]; first compound 0.8 µM,0.423
same,relative viability,[15]; first compound 2.53 µM,0.458
same,relative viability,[15]; first compound 8 µM,0.421
same,relative viability,[16]; first compound 0.253 µM,0.42
same,relative viability,[16]; first compound 0.8 µM,0.714
same,relative viability,[16]; first compound 2.53 µM,0.724
same,relative viability,[16]; first compound 8 µM,0.355
same,relative viability,[17]; first compound 0.253 µM,0.423
same,relative viability,[17]; first compound 0.8 µM,0.438
same,relative viability,[17]; first compound 2.53 µM,0.37
same,relative viability,[17]; first compound 8 µM,0.269
same,relative viability,[18]; first compound 0.253 µM,0.653
same,relative viability,[18]; first compound 0.8 µM,0.733
same,relative viability,[18]; first compound 2.53 µM,0.589
same,relative viability,[18]; first compound 8 µM,0.414
same,relative viability,[19]; first compound 0.253 µM,0.511
same,relative viability,[19]; first compound 0.8 µM,0.596
same,relative viability,[19]; first compound 2.53 µM,0.546
same,relative viability,[19]; first compound 8 µM,0.49
same,relative viability,[20]; first compound 0.253 µM,0.383
same,relative viability,[20]; first compound 0.8 µM,0.453
same,relative viability,[20]; first compound 2.53 µM,0.522
same,relative viability,[20]; first compound 8 µM,0.433
same,relative viability,[21]; first compound 0.253 µM,0.363
same,relative viability,[21]; first compound 0.8 µM,0.263
same,relative viability,[21]; first compound 2.53 µM,0.25
same,relative viability,[21]; first compound 8 µM,0.264
same,relative viability,[22]; first compound 0.253 µM,0.382
same,relative viability,[22]; first compound 0.8 µM,0.359
same,relative viability,[22]; first compound 2.53 µM,0.381
same,relative viability,[22]; first compound 8 µM,0.365
same,relative viability,[23]; first compound 0.253 µM,0.691
same,relative viability,[23]; first compound 0.8 µM,0.618
same,relative viability,[23]; first compound 2.53 µM,0.719
same,relative viability,[23]; first compound 8 µM,0.713
same,relative viability,[24]; first compound 0.253 µM,0.518
same,relative viability,[24]; first compound 0.8 µM,0.483
same,relative viability,[24]; first compound 2.53 µM,0.504
same,relative viability,[24]; first compound 8 µM,0.524
Nc1cccc2c1CN(C1CCC(=O)NC1=O)C2=O (stereo unspecified) [Lenalidomide] + C[C@@H](Oc1cc(-c2cnn(C3CCNCC3)c2)cnc1N)c1c(Cl)ccc(F)c1Cl [Crizotinib] (partner 1 µM),relative viability,[1]; first compound 0.253 µM,0.656
same,relative viability,[1]; first compound 0.8 µM,0.634
same,relative viability,[1]; first compound 2.53 µM,0.718
same,relative viability,[1]; first compound 8 µM,0.82
same,relative viability,[2]; first compound 0.253 µM,1.1
same,relative viability,[2]; first compound 2.53 µM,1.31
same,relative viability,[2]; first compound 8 µM,1.28
same,relative viability,[3]; first compound 0.253 µM,0.721
same,relative viability,[3]; first compound 0.8 µM,0.679
same,relative viability,[3]; first compound 2.53 µM,0.815
same,relative viability,[3]; first compound 8 µM,0.769
same,relative viability,[4]; first compound 0.253 µM,0.838
same,relative viability,[4]; first compound 2.53 µM,0.802
same,relative viability,[4]; first compound 8 µM,0.8
same,relative viability,[5]; first compound 0.253 µM,0.823
same,relative viability,[5]; first compound 0.8 µM,0.663
same,relative viability,[5]; first compound 2.53 µM,0.857
same,relative viability,[5]; first compound 8 µM,0.832
same,relative viability,[6]; first compound 0.253 µM,0.859
same,relative viability,[6]; first compound 0.8 µM,0.507
same,relative viability,[6]; first compound 2.53 µM,0.938
same,relative viability,[6]; first compound 8 µM,0.74
same,relative viability,[7]; first compound 0.253 µM,1.03
same,relative viability,[7]; first compound 0.8 µM,0.965
same,relative viability,[7]; first compound 2.53 µM,1.05
same,relative viability,[7]; first compound 8 µM,0.904
same,relative viability,[8]; first compound 0.253 µM,0.229
same,relative viability,[8]; first compound 2.53 µM,0.216
same,relative viability,[8]; first compound 8 µM,0.256
same,relative viability,[9]; first compound 0.253 µM,1.04
same,relative viability,[9]; first compound 0.8 µM,0.956
same,relative viability,[9]; first compound 2.53 µM,1.26
same,relative viability,[9]; first compound 8 µM,0.923
same,relative viability,[10]; first compound 0.253 µM,0.973
same,relative viability,[10]; first compound 0.8 µM,0.807
same,relative viability,[10]; first compound 2.53 µM,1.19
same,relative viability,[10]; first compound 8 µM,1.11
same,relative viability,[11]; first compound 0.253 µM,1.1
same,relative viability,[11]; first compound 0.8 µM,1.1
same,relative viability,[11]; first compound 2.53 µM,1.15
same,relative viability,[11]; first compound 8 µM,1
same,relative viability,[12]; first compound 0.253 µM,1.03
same,relative viability,[12]; first compound 0.8 µM,0.984
same,relative viability,[12]; first compound 2.53 µM,1.15
same,relative viability,[12]; first compound 8 µM,1.01
same,relative viability,[13]; first compound 0.253 µM,0.661
same,relative viability,[13]; first compound 0.8 µM,0.785
same,relative viability,[13]; first compound 2.53 µM,0.675
same,relative viability,[13]; first compound 8 µM,0.596
same,relative viability,[14]; first compound 0.253 µM,0.81
same,relative viability,[14]; first compound 0.8 µM,0.896
same,relative viability,[14]; first compound 2.53 µM,0.539
same,relative viability,[14]; first compound 8 µM,0.928
same,relative viability,[15]; first compound 0.253 µM,1.02
same,relative viability,[15]; first compound 0.8 µM,1.02
same,relative viability,[15]; first compound 2.53 µM,1.08
same,relative viability,[15]; first compound 8 µM,0.993
same,relative viability,[16]; first compound 0.253 µM,0.421
same,relative viability,[16]; first compound 0.8 µM,0.362
same,relative viability,[16]; first compound 2.53 µM,0.586
same,relative viability,[16]; first compound 8 µM,0.457
same,relative viability,[17]; first compound 0.253 µM,0.819
same,relative viability,[17]; first compound 0.8 µM,0.858
same,relative viability,[17]; first compound 2.53 µM,0.897
same,relative viability,[17]; first compound 8 µM,0.791
same,relative viability,[18]; first compound 0.253 µM,0.261
same,relative viability,[18]; first compound 0.8 µM,0.286
same,relative viability,[18]; first compound 2.53 µM,0.261
same,relative viability,[18]; first compound 8 µM,0.258
same,relative viability,[19]; first compound 0.253 µM,0.911
same,relative viability,[19]; first compound 0.8 µM,0.9
same,relative viability,[19]; first compound 2.53 µM,0.914
same,relative viability,[19]; first compound 8 µM,0.996
same,relative viability,[20]; first compound 0.253 µM,0.612
same,relative viability,[20]; first compound 0.8 µM,0.693
same,relative viability,[20]; first compound 2.53 µM,0.726
same,relative viability,[20]; first compound 8 µM,0.778
same,relative viability,[21]; first compound 0.253 µM,0.807
same,relative viability,[21]; first compound 0.8 µM,1.06
same,relative viability,[21]; first compound 2.53 µM,1.01
same,relative viability,[21]; first compound 8 µM,0.929
same,relative viability,[22]; first compound 0.253 µM,1.1
same,relative viability,[22]; first compound 0.8 µM,0.912
same,relative viability,[22]; first compound 2.53 µM,1.08
same,relative viability,[22]; first compound 8 µM,0.938
same,relative viability,[23]; first compound 0.253 µM,0.904
same,relative viability,[23]; first compound 0.8 µM,0.857
same,relative viability,[23]; first compound 2.53 µM,0.905
same,relative viability,[23]; first compound 8 µM,0.914
same,relative viability,[24]; first compound 0.253 µM,0.801
same,relative viability,[24]; first compound 0.8 µM,0.844
same,relative viability,[24]; first compound 2.53 µM,0.766
same,relative viability,[24]; first compound 8 µM,0.772
